Reference: publication PMC12794078, “Real-Time Binding Kinetics of Small Molecules to CA IX in Live Suspension Cells Using SPR Microscopy” (ACS Medicinal Chemistry Letters, 2025)
Where two headings read alike, the source gives them in different places. Blank lines part the entries; values can stand above or below the compound they belong to.

Tests used:
[1] = molecular target: CA IX on live Ramos B cells (Homo sapiens, UniProt Q16790); assay: SPRM kinetic titration of small molecules on live Ramos B suspension cells (1:1 kinetic model, 600 ROIs)
Method: All cells were maintained in an incubator at 37 °C with 5% CO2 before seeding. For every experiment, cell viability was determined with Trypan blue using a TC20 cell counter (BioRad). PLL precoated SPRM sensor chips were prepared according to manufacturer’s protocol (Gibco, cat. # A3890401). 5K Ramos B cells at 99% viability were gently seeded onto PLL precoated SPRM sensor chips containing 600 μL of Mccoy medium 5A supplemented with 10% FBS and then incubated at 37 °C with 5% CO2. After 72 h of incubation, cells were washed with live cell imaging buffer (A59688DJ) twice and immediately followed by SPRM analysis. […] All experiments were performed with a commercially available Ramos B cell line.
SPRM is highly sensitive to ligand binding events on the cell membrane, which induces dielectric changes that are recorded as sensorgrams. Moreover, its high-resolution diffraction limited optics produces sensorgrams of subcellular response regions, enabling detailed evaluation of binding heterogeneity.
High resolution SPRM measurements were generated by uniformly segmenting the sensing area (600 μm × 450 μm area) into a virtual grid of 600 regions of interest (ROI). For every ROI, a 1:1 kinetic binding interaction model was applied. Bare area ROIs were subtracted as references from the cell area ROIs. The SPRM kinetic analysis results of all ROIs were aggregated for statistical analysis. ImageSPR software (Biosensing Instrument Inc., Tempe AZ) was used to generate the sensorgrams, fitting, and statistical analysis of binding interactions. ROIs that detected a response which fitted well to the kinetic interaction model were collectively plotted onto an isoaffinity scatter plot for statistical analysis of the binding heterogeneity (Figure ). Histograms extracted from the isoaffinity scatter plot were fit with Gaussian distributions to obtain mean values and standard deviations for the association rate (k a), dissociation rate (k d), and equilibrium dissociation constant (KD). Subsequently, those ROIs that observe binding responses were highlighted in red and overlaid onto the SPRM image to more clearly evaluate the extent of cell-specific and nonspecific binding.

[2] = molecular target: CA II; conditions: ex vitro purified CA II, published values; reference number not given; read-out: Reported values CA II; cited from earlier work
[3] = association rate, membrane-bound CA IX, live Ramos B cells
[4] = dissociation rate, membrane-bound CA IX, live Ramos B cells

Structure (SMILES): Nc1ccc(S(N)(=O)=O)cc1 [Sulfanilamide]
k a, SPRM results for CA IX [1]: 4.40 × 10^03 M^–1 s^–1
kd, SPRM results for CA IX [1]: 1.39 × 10^–03 s^–1

Kd ([1]; Batch 1): 870 nM
Kd ([1]; Batch 2): 1000 nM
Kd ([1]; Batch 3): 780 nM
Kd ([1]; SPRM results for CA IX): 870 nM
Structure (SMILES): NS(=O)(=O)c1ccc(C(=O)O)cc1 [4-CBS, 4-Carboxybenzenesulfonamide]

k a, SPRM results for CA IX [1, 3]: 1.10 × 10^03 M^–1 s^–1
kd, SPRM results for CA IX [1, 4]: 1.16 × 10^–03 s^–1
Structure (SMILES): NS(=O)(=O)c1cc(C(=O)O)c(NCc2ccco2)cc1Cl [Furosemide]

Kd ([1]; Batch 1, live Ramos B cells, experiment/batch 1): 586 nM
Kd ([1]; Batch 2, live Ramos B cells, experiment/batch 2): 542 nM
Kd ([1]; Batch 3, live Ramos B cells, experiment/batch 3): 534 nM
Kd ([1]; SPRM results for CA IX, membrane-bound CA IX, live Ramos B cells, Gaussian mean over ROIs): 586 nM
k a, SPRM results for CA IX [1, 3]: 2.53 × 10^03 M^–1 s^–1
kd, SPRM results for CA IX [1, 4]: 2.34 × 10^–03 s^–1
Structure (SMILES): CN(C)c1cccc2c(S(N)(=O)=O)cccc12 [Dansylamide]
Kd [2]: 760 nM
